Where two headings read alike, the source gives them in different places.
Assays:
[1] = test system: iron chloride-induced thrombus models; settings: mice, intravenous administration; cited from earlier work
TAFIa = TAFIa (Homo sapiens (Human), UniProt Q96IY4); assay: Determination of TAFIa enzyme inhibitory activity (FAAK substrate degradation); type: biochemical; settings: read-out: TAFIa IC50
Experimental: Determination of TAFIa Enzyme Inhibitory Activity
HEPES buffered saline (20 mM HEPES, 150 mM NaCl, pH 7.4; hereinafter, referred to as HBS) was used in the preparation of a reaction solution. To 12 μL of a 250 μg/mL TAFI solution, 30 μL of an HBS solution containing 4 U/mL human thrombin, 12 U/mL rabbit lung thrombomodulin, and 12 mM CaCl2 was added, and the mixture was gently stirred. Then, TAFI was activated at room temperature. Ten minutes later, thrombin was neutralized by the addition of 10 μL of 100 μM PPACK (thrombin inhibitor) to terminate the activation of TAFI. The formed TAFIa was stored in ice and diluted immediately before use in determination with 2050 μL of an HBS solution containing BSA (bovine serum albumin) adjusted to 0.1% in terms of the final concentration.
(2) Determination of TAFIa Inhibitory Activity
A test substance was dissolved in HBS to prepare a 10-fold dilution series of evaluation concentrations. 80 μL of the TAFIa solution and 10 μL of the test substance were added to each well of a 96-well plate and mixed by shaking for 10 minutes. 10 μL of furylacryloyl-alanyl-lysine (FAAK) adjusted to 5 mg/mL was added to each well, and the change in the absorbance of this mixed solution at 330 nm was read for 30 minutes to determine the degradation rate of the substrate.
(3) Calculation of Inhibitory Activity IC50
The degradation rate of the substrate in each well was applied to a standard curve prepared using the dilution series of the TAFIa solution to calculate TAFIa activity.

[2] = TAFI activated with human thrombin / rabbit lung thrombomodulin, substrate FAAK, absorbance at 330 nm

Sequence of TAFIa (Q96IY4 115-423): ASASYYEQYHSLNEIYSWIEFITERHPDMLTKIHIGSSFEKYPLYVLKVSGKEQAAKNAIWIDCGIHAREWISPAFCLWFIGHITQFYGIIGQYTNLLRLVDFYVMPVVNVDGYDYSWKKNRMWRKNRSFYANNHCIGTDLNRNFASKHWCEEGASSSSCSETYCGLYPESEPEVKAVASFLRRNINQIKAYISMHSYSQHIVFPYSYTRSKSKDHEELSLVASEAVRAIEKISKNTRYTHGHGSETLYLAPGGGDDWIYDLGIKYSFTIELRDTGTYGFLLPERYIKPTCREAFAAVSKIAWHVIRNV

Compound | IC50 (TAFIa; [2]) [nM] | other results
potato carboxypeptidase inhibitor (PCI) (QQHADPICNKPCKTHDDCSGAWFCQACWNSARTCGPYVG; UniProt P01075 1-39, looked up) | – | antithrombotic effect [1]: antithrombotic effect
NCCC[C@H]1C[C@]1(C(=O)O)c1cn(-c2ccc(C(F)(F)F)cc2)cn1 (relative stereo) [Example 13, (1R*,2S*)-2-(3-Aminopropyl)-1-{1-[4-(trifluoromethyl)phenyl]-1H-imidazol-4-yl}cyclopropanecarboxylic acid] | 140 | –
CC(C)(C)CCn1cnc([C@@]2(C(=O)O)C[C@@H]2CCCN)c1 [Example 28, (1R,2S)-2-(3-Aminopropyl)-1-[1-(3,3-dimethylbutyl)-1H-imidazol-4-yl]cyclopropanecarboxylic acid] | – | IC50 (TAFIa): 4.5 nM

Continued, in another order:

IC50 (TAFIa; [2]) [nM] | Compound | other results
61 | NCCC[C@H]1C[C@]1(C(=O)O)c1cn(-c2ccc(F)c(F)c2)cn1 (relative stereo) [Example 17, (1R*,2S*)-2-(3-Aminopropyl)-1-[1-(3,4-difluorophenyl)-1H-imidazol-4-yl]cyclopropanecarboxylic acid] | –
70 | NCCC[C@H]1C[C@]1(C(=O)O)c1cn(-c2cccc(Cl)c2)cn1 (relative stereo) [Example 19, (1R*,2S*)-2-(3-Aminopropyl)-1-[1-(3-chlorophenyl)-1H-imidazol-4-yl]cyclopropanecarboxylic acid] | –
340 | NCCC[C@H]1C[C@]1(C(=O)O)c1cn(-c2ccc(O)nc2)cn1 (relative stereo) [Example 35, (1R*,2S*)-2-(3-Aminopropyl)-1-[1-(6-hydroxypyridin-3-yl)-1H-imidazol-4-yl]cyclopropanecarboxylic acid] | –

From patent US9662310B2, “Cyclopropanecarboxylic acid derivative” (DAIICHI SANKYO COMPANY, LIMITED, priority 2010, dated 2017)
